Test results from patent US6841556B2, “Pyrazoloisoquinoline derivatives for inhibiting NFκB-inducing kinase” (Aventis Pharma Deutschland GmbH, priority 2002, dated 2005).

Experiments:
[1] = test system: human peripheral blood lymphocytes; experiment: Cytotoxicity by LDH release, IL1β-stimulated human peripheral blood lymphocytes; format: cell-based
Procedure: (§1) The pyrazoloisoquinoline derivatives according to the invention were tested for inhibitory activity against NIK in various in vitro assay systems. In this connection, human peripheral blood lymphocytes were preincubated for 1 h with different concentrations of the compounds and then stimulated for 24 h with LPS or IL1β. After that, a commercially obtainable ELISA test kit was used to measure the release of TNFα in the culture supernatant, and the IC50 for the given compound was determined. The cytotoxicity was measured by way of LDH release using a commercially obtainable test kit and the LD50 for the given compound was determined.

[2] = test system: human peripheral blood lymphocytes; experiment: Cytotoxicity by LDH release, LPS-stimulated human peripheral blood lymphocytes; format: cell-based
Procedure: as §1

In the case of `c1ccc(-c2nc3c(-c4ccccc4)n[nH]c3c3ccccc23)cc1` [Example 1, 3,5-Diphenyl-1H-pyrazolo[4,3-c]isoquinoline], the “Cytotoxicity LD50” value [1] is reported as over 100 µM and the “Cytotoxicity LD50” value [2] is reported as over 100 µM.

With `COc1cccc(-c2nc3c(C)n[nH]c3c3ccccc23)c1` [Example 2, 5-(3-Methoxyphenyl)-3-methyl-1H-pyrazolo[4,3-c]isoquinoline] the “Cytotoxicity LD50” value [1] was over 100 µM and the “Cytotoxicity LD50” value [2] was over 100 µM.

In the case of `Cc1n[nH]c2c1nc(-c1cccc(O)c1)c1ccccc12` [Example 3, 3-(3-Methyl-1H-pyrazolo[4,3-c]isoquinolin-5-yl)phenol], the “Cytotoxicity LD50” value [1] is reported as over 100 µM and the “Cytotoxicity LD50” value [2] is reported as over 100 µM.
